Entries after “also recorded” stand apart in the source; their conditions may differ. No end group written: not given here.
Columns and labels:
A549 = assay: PCD induction in cancer cell lines, Annexin V labeling; assay type: cell-based; conditions: A549 (Lung carcinoma), 400 μM 4N1K, 1 h
Method: (§1) We used Annexin V-FITC (BD Biosciences) for the assessment of phosphatidylserine (PS) exposure. Data analysis was carried out in a FACSCanto II (BD Biosciences) on the total cell population (10,000 cells). Data were analyzed using FlowJo software (TreeStar).

AU-565 = assay: as above; assay type: cell-based; conditions: AU-565 (Breast adenocarcinoma), 400 μM 4N1K, 1 h
Method: as §1

CEM = assay: as above; assay type: cell-based; conditions: CEM (Acute lymphoblastic leukemia), 400 μM 4N1K, 1 h
Method: as §1

HBL-100 = assay: as above; assay type: cell-based; conditions: HBL-100 (Breast epithelial cells with transformed morphology), 400 μM 4N1K, 1 h
Method: as §1

HELA = assay: as above; assay type: cell-based; conditions: HELA (Cervical cancer), 400 μM 4N1K, 1 h
Method: as §1

JM-1 = assay: as above; assay type: cell-based; conditions: JM-1 (Immunoblastic B cell lymphoma), 400 μM 4N1K, 1 h
Method: as §1

JURKAT = assay: as above; assay type: cell-based; conditions: JURKAT (Acute T cell leukemia), 400 μM 4N1K, 1 h
Method: as §1

LNCAP = assay: as above; assay type: cell-based; conditions: LNCAP (Prostate cancer), 400 μM 4N1K, 1 h
Method: as §1

MCF-7 = assay: as above; assay type: cell-based; conditions: MCF-7 (Breast adenocarcinoma), 400 μM 4N1K, 1 h
Method: as §1

MDA-MB-231 = assay: as above; assay type: cell-based; conditions: MDA-MB-231 (Adenocarcinoma), 400 μM 4N1K, 1 h
Method: as §1

MEC-1 = assay: as above; assay type: cell-based; conditions: MEC-1 (Chronic Lymphocytic Leukemia), 400 μM 4N1K, 1 h
Method: as §1

OV10 = assay: as above; assay type: cell-based; conditions: OV10 (Ovarian Carcinoma), 400 μM 4N1K, 1 h
Method: as §1

RAJI = assay: as above; assay type: cell-based; conditions: RAJI (Burkitt's lymphoma), 400 μM 4N1K, 1 h
Method: as §1

RAMOS = assay: as above; assay type: cell-based; conditions: RAMOS (Burkitt's lymphoma), 400 μM 4N1K, 1 h
Method: as §1

RPMI 8226 = assay: as above; assay type: cell-based; conditions: RPMI 8226 (B lymphocytic cell line), 400 μM 4N1K, 1 h
Method: as §1

RPMI 8866 = assay: as above; assay type: cell-based; conditions: RPMI 8866 (B lymphocytic cell line), 400 μM 4N1K, 1 h
Method: as §1

U937 = assay: as above; assay type: cell-based; conditions: U937 (Diffuse histiocytic lymphoma), 400 μM 4N1K, 1 h
Method: as §1

Ovarian carcinoma = assay: PCD induction in primary cancer cells; assay type: cell-based
Breast carcinoma = assay: PCD induction in primary cancer cells; assay type: cell-based
Colon carcinoma = assay: PCD induction in primary cancer cells; assay type: cell-based
Bladder carcinoma = assay: PCD induction in primary cancer cells; assay type: cell-based
Glioblastoma = assay: PCD induction in primary cancer cells; assay type: cell-based
Hepatocellular carcinoma = assay: PCD induction in primary cancer cells; assay type: cell-based
Prostate tumor cells = assay: PCD induction in primary cancer cells; assay type: cell-based
Glioma = assay: PCD induction in primary cancer cells; assay type: cell-based
Follicular lymphoma = assay: PCD induction in primary cancer cells; assay type: cell-based
Mantle cell lymphoma = assay: PCD induction in primary cancer cells; assay type: cell-based
[1] = tested on: Diffuse large B cell lymphoma; assay: PCD induction in primary cancer cells; assay type: cell-based
[2] = tested on: Chronic Lymphocytic Leukemia; assay: PCD induction in primary cancer cells; assay type: cell-based
Marginal B cell lymphoma = assay: PCD induction in primary cancer cells; assay type: cell-based
[3] = tested on: Lymphoplasmacytic lymphoma; assay: PCD induction in primary cancer cells; assay type: cell-based
[4] = tested on: Hairy cell leucemia (HCL); assay: PCD induction in primary cancer cells; assay type: cell-based
Acute T cell leukemia = assay: PCD induction in primary cancer cells; assay type: cell-based
cancer cell lines = assay: PCD induction in cancer cell lines (whole panel of Table 1); assay type: cell-based; conditions: cancer cell lines (Table 1)
Method: as §1

primary cancer cells = assay: PCD induction in primary cancer cells (whole panel of Table 2); assay type: cell-based; conditions: primary cancer cells (Table 2)
[5] = tested on: B cells isolated from CLL patients; assay: PCD (phosphatidylserine exposure, Annexin-V-FITC, flow cytometry) in B cells from CLL patients; assay type: cell-based, human
Text: (§2) After authorized consent forms fresh blood samples will be collected from CLL patients diagnosed according to classical morphological and immunophenotypic criteria at Pitié-Salpêtrière Hospital (Service d'Hématologie Biologique). Normal B lymphocytes will be obtained from EFS (Etablisement Français du Sang). The Institutional Ethics Committee at Pitie-Salpetriere Hospital approved the present study. Mononuclear cells were purified from blood samples using a standard Ficoll-Hypaque gradient, and B cells were positively or negatively selected by magnetic beads coupled to anti-CD19 monoclonal antibody (positive selection) or to anti-CD16, CD3, and CD14 monoclonal antibodies (negative depletion) (Miltenyi Biotech). No changes were found in the cell death response of positively or negatively selected cells. Purified B-lymphocytes were cultured in complete medium (RPMI 1640 medium supplemented with 10% fetal calf serum, 2 mM L-glutamine, and 100 U/ml penicillin-streptomycin). Unless specified, reagents were from Sigma-Aldrich.
To induce cell death B-lymphocytes were cultured 1 h with the TSP-1 derived peptide 4N1K (300 μM; sequence KRFYVVMWKK, SEQ ID NO:1), the negative control peptide 4NGG (300 μM; sequence KRFYGGMWKK, SEQ ID NO:2), the newly developed peptide PKHB1 (150 μM; sequence (D)K-R-F-Y-[…]-M-W-(D)K) (formula I) or an anti-CD47 mAb (in soluble conditions or in immobilized precoated plates; 5 μg/ml; clone B6H12). Alternatively, B-cells were pre-treated for 30 min before the induction of cell death with the calcium chelator BAPTA-AM (20 μM), the caspase-inhibitor Z-VAD.fmk (50 μM).
as §1

normal B-lymphocytes = assay: PCD (Annexin-V-FITC) in normal B-lymphocytes; assay type: cell-based, human
Text: as §2, with “Sigma-Aldrich. […]” for “Sigma-Aldrich.”
We used Annexin V-FITC (BD Biosciences) for the assessment of phosphatidylserine (PS) exposure. […] Data were analyzed using FlowJo software (TreeStar).

[6] = tested on: B cells from CLL patients; assay: Free Ca2+ mobilization, Fura-2 AM, Till photonics; assay type: cell-based, human; conditions: Fura-2 AM (FIG. 4)
Method: Cells, adhered in Polylysine coated glass-bottom Petri dishes, were loaded with Fura-2 AM (1 μM/30 min/37° C.). Cells were then excited by wavelengths of 340 and 380 nm and fluorescence emission of several cells was simultaneously recorded at 510 nm at a frequency of 1 Hz using a dual excitation fluorometric imaging system (TILL-Photonics) controlled by TILL-Vision software. Signals were computed into relative ratio units of the fluorescence intensity of the different wavelengths (340/380 nm). Individual fluorescence values were then analyzed with Origin software to normalize the fluorescence with the first value according to the equation (F/F0)−1, where ‘F’ is the fluorescence at specific time point and ‘F0’ is the fluorescence at time 0.

KRFYVVMWKK [4N1K, K-R-F-Y-V-V-M-W-K-K]
Cell death induction via CD47 (A549): + (more than 35% of cell death induction, assessed by Annexin V labeling, after 1 h of stimulation with 400 μM of 4N1K (means of six independent experiments)) | Cell death induction via CD47 (AU-565): + (more than 35% of cell death induction, assessed by Annexin V labeling, after 1 h of stimulation with 400 μM of 4N1K (means of six independent experiments)) | Cell death induction via CD47 (CEM): + (more than 35% of cell death induction, assessed by Annexin V labeling, after 1 h of stimulation with 400 μM of 4N1K (means of six independent experiments)) | Cell death induction via CD47 (HBL-100): + (more than 35% of cell death induction, assessed by Annexin V labeling, after 1 h of stimulation with 400 μM of 4N1K (means of six independent experiments)) | Cell death induction via CD47 (HELA): + (more than 35% of cell death induction, assessed by Annexin V labeling, after 1 h of stimulation with 400 μM of 4N1K (means of six independent experiments)) | Cell death induction via CD47 (JM-1): + (more than 35% of cell death induction, assessed by Annexin V labeling, after 1 h of stimulation with 400 μM of 4N1K (means of six independent experiments)) | Cell death induction via CD47 (JURKAT): + (more than 35% of cell death induction, assessed by Annexin V labeling, after 1 h of stimulation with 400 μM of 4N1K (means of six independent experiments)) | Cell death induction via CD47 (LNCAP): + (more than 35% of cell death induction, assessed by Annexin V labeling, after 1 h of stimulation with 400 μM of 4N1K (means of six independent experiments)) | Cell death induction via CD47 (MCF-7): + (more than 35% of cell death induction, assessed by Annexin V labeling, after 1 h of stimulation with 400 μM of 4N1K (means of six independent experiments)) | Cell death induction via CD47 (MDA-MB-231): + (more than 35% of cell death induction, assessed by Annexin V labeling, after 1 h of stimulation with 400 μM of 4N1K (means of six independent experiments)) | Cell death induction via CD47 (MEC-1): + (more than 35% of cell death induction, assessed by Annexin V labeling, after 1 h of stimulation with 400 μM of 4N1K (means of six independent experiments)) | Cell death induction via CD47 (OV10): + (more than 35% of cell death induction, assessed by Annexin V labeling, after 1 h of stimulation with 400 μM of 4N1K (means of six independent experiments)) | Cell death induction via CD47 (RAJI): + (more than 35% of cell death induction, assessed by Annexin V labeling, after 1 h of stimulation with 400 μM of 4N1K (means of six independent experiments)) | Cell death induction via CD47 (RAMOS): + (more than 35% of cell death induction, assessed by Annexin V labeling, after 1 h of stimulation with 400 μM of 4N1K (means of six independent experiments)) | Cell death induction via CD47 (RPMI 8226): + (more than 35% of cell death induction, assessed by Annexin V labeling, after 1 h of stimulation with 400 μM of 4N1K (means of six independent experiments)) | Cell death induction via CD47 (RPMI 8866): + (more than 35% of cell death induction, assessed by Annexin V labeling, after 1 h of stimulation with 400 μM of 4N1K (means of six independent experiments)) | Cell death induction via CD47 (U937): + (more than 35% of cell death induction, assessed by Annexin V labeling, after 1 h of stimulation with 400 μM of 4N1K (means of six independent experiments)) | Cell death induction via CD47 (Ovarian carcinoma): + (more than 35% of programmed cell death induction via CD47 receptor) | Cell death induction via CD47 (Breast carcinoma): + (more than 35% of programmed cell death induction via CD47 receptor) | Cell death induction via CD47 (Colon carcinoma): + (more than 35% of programmed cell death induction via CD47 receptor) | Cell death induction via CD47 (Bladder carcinoma): + (more than 35% of programmed cell death induction via CD47 receptor) | Cell death induction via CD47 (Glioblastoma): + (more than 35% of programmed cell death induction via CD47 receptor) | Cell death induction via CD47 (Hepatocellular carcinoma): + (more than 35% of programmed cell death induction via CD47 receptor) | Cell death induction via CD47 (Prostate tumor cells): + (more than 35% of programmed cell death induction via CD47 receptor) | Cell death induction via CD47 (Glioma): + (more than 35% of programmed cell death induction via CD47 receptor) | Cell death induction via CD47 (Follicular lymphoma): + (more than 35% of programmed cell death induction via CD47 receptor) | Cell death induction via CD47 (Mantle cell lymphoma): + (more than 35% of programmed cell death induction via CD47 receptor) | Cell death induction via CD47 [1]: + (more than 35% of programmed cell death induction via CD47 receptor) | Cell death induction via CD47 [2]: + (more than 35% of programmed cell death induction via CD47 receptor) | Cell death induction via CD47 (Marginal B cell lymphoma): + (more than 35% of programmed cell death induction via CD47 receptor) | Cell death induction via CD47 [3]: + (more than 35% of programmed cell death induction via CD47 receptor) | Cell death induction via CD47 [4]: + (more than 35% of programmed cell death induction via CD47 receptor) | Cell death induction via CD47 (Acute T cell leukemia): + (more than 35% of programmed cell death induction via CD47 receptor) | cell death induction (cancer cell lines): more than 35% | cell death induction (primary cancer cells): more than 35% | difference in PCD response between CLL cells with functional and non-functional TP53 ([5]; 300 μM, 1 h (FIG. 2B)): Not significant difference | cell death in CLL cells ([5]; 300 μM, 1 h, Annexin-V-FITC, cohort of 14 CLL patients (FIG. 6B)): about 45% | difference in PCD between CLL cells treated or not with caspase inhibitor ZVAD ([5]; 300 μM, 1 h, z-VAD.fmk 50 μM pre-incubation (FIG. 2A)): Not significant difference | effect of pre-treatment with calcium chelator BAPTA-AM on peptide-mediated PCD ([5]; BAPTA-AM 20 μM before PCD induction (FIG. 5, FIG. 6D)): abrogates | PCD induction in CLL primary cells (in words) ([5]; soluble peptide or mAb (FIG. 1)): induces caspase-independent PCD | cytotoxicity in normal B-lymphocytes (normal B-lymphocytes): not in normal B-lymphocytes | intracellular free Ca2+ mobilization [6]: does not come back to basal level; also recorded: potent and sustained increase of calcium mobilization

Source: patent US10759843B2, “Method and pharmaceutical composition for use in the treatment of cancer” (priority 2012, dated 2020)
